Assay results reported in patent publication US9932339B2, “Helquats with heteroaromatic substituents, preparation thereof, and use thereof as G-quadruplex stabilizers” (USTAV ORGANICKE CHEMIE A BIOCHEMIE AV CR, V.V.I., priority 2014, dated 2018).
pIC50: −log10 of the molar value. Where two headings read alike, the source gives them in different places.

Assays:
[1] = tested on: CCRF-CEM; assay: XTT cytotoxicity/proliferation assay, CCRF-CEM; type: cell-based; settings: Homo sapiens, CCRF-CEM
How it was run: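 CCRF-CEM cells plated at 3000 per well, treated next day for 72 h with helquats over 1-100 μmol·l^−1. Viability by XTT reduction (2 h), absorbance 492 nm with 690 nm reference; IC50 from triplicates, repeated in at least three independent experiments, values above 100 μmol·l^−1 extrapolated.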

[2] = tested on: HUVEC; assay: XTT cytotoxicity/proliferation assay, HUVEC; type: cell-based, human; settings: Homo sapiens, HUVEC
How it was run: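 HUVEC (passages 3–8, collagen I-coated dishes, E-STIM medium) plated at 3000 cells/well, dosed next day with compounds in water. After 72 h at 37 °C, XTT added for 2 h; absorbance at 492 nm (reference 690 nm) against untreated and medium-only controls.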

[3] = 72 hours of treatment, read-out: IC50 CCRF CEM
[4] = 72 hours of treatment, values above 100 μmol·l^−1 obtained by extrapolation, read-out: IC50 HUVEC
[5] = 72 hours, summary of table 9, read-out: concentrations toxic towards CCRF-CEM cells
[6] = 72 hours, summary of table 9, read-out: concentrations non-toxic towards HUVEC cells

Cc1c(C)c2c(c3c1CC[n+]1ccc(/C=C/c4cccc5c4oc4ccccc45)cc1-3)-c1c3ccccc3cc[n+]1CC2 (racemic) [MJA-C13-8, (rac)-(E)-13-(2-(dibenzo[b,d]furan-4-yl)vinyl)-6,7-dimethyl-4,5,8,9-tetrahydroisoquinolino[1,2-a]pyrido[1,2-k][2,9]phenanthroline-3,10-diium trifluoromethanesulfonate]
pIC50 [1, 3]: 4.30 to 4.59 | pIC50 [2, 4]: ≤ 4.00

O=[N+]([O-])c1cccc2[nH]cc(/C=C/c3cc[n+]4c(c3)-c3c(ccc5c3-c3cccc[n+]3CC5)CC4)c12 (racemic) [LSA-C9-32, (rac)-(E)-2-(2-(4-nitro-1H-indol-3-yl)vinyl)-6,7,10,11-tetrahydrodipyrido[2,1-a:1′,2′-k][2,9]phenanthroline-5,12-diium trifluoromethanesulfonate]
pIC50 [1, 3]: 4.60 to 4.96 | pIC50 [1, 5]: > 4.60 | pIC50 [2, 4]: ≤ 4.00 | pIC50 [2, 6]: < 4.00

C(=C\c1c(-c2ccccc2)[nH]c2ccccc12)/c1cc2ccccc2[n+]2c1-c1c(ccc3c1-c1cccc[n+]1CCC3)CCC2.O=S(=O)([O-])C(F)(F)F.O=S(=O)([O-])C(F)(F)F [MSC-C15-8, 19-((E)-2-(2-phenyl-1H-indol-3-yl)vinyl)-6,7,8,11,12,13-hexahydropyrido[1′″,2′″:1″,2″]azepino[4″,3″:5′,6′]benzo[1′,2′:3,4]azepino[1,2-a]quinoline-5,14-diium trifluoromethanesulfonate]
pIC50 [1, 3]: 4.60 to 4.96 | pIC50 [2, 4]: ≤ 4.29

C(=C\c1cccc2c1oc1ccccc12)/c1cc[n+]2c(c1)-c1c(ccc3c1-c1c4ccccc4cc[n+]1CC3)CC2.O=S(=O)([O-])C(F)(F)F.O=S(=O)([O-])C(F)(F)F [MSB-C13-8, (E)-13-(2-(dibenzo[b,d]furan-4-yl)vinyl)-4,5,8,9-tetrahydroisoquinolino[1,2-a]pyrido[1,2-k][2,9]phenanthroline-3,10-diium trifluoromethanesulfonate]
pIC50 [1, 3]: 4.30 to 4.59 | pIC50 [2, 4]: ≤ 4.00

Brc1ccc2[nH]cc(/C=C/c3cc4ccccc4[n+]4c3-c3c(ccc5c3-c3cccc[n+]3CCC5)CCC4)c2c1.O=S(=O)([O-])C(F)(F)F.O=S(=O)([O-])C(F)(F)F [MSC-C9-30, 19-((E)-2-(5-bromo-1H-indol-3-yl)vinyl)-6,7,8,11,12,13-hexahydropyrido[1′″,2′″:1″,2″]azepino[4″,3″:5′,6′]benzo[1′,2′:3,4]azepino[1,2-a]quinoline-5,14-diium trifluoromethanesulfonate]
pIC50 [1, 3]: ≥ 5.00 | pIC50 [1, 5]: > 4.60 | pIC50 [2, 4]: ≤ 4.00 | pIC50 [2, 6]: < 4.00
